The record followed here is patent publication US20250129021A1, “SMALL MOLECULE PROTEIN SYNTHESIS MODULATORS” (Interdict Bio, Inc., priority 2023, published 2025).

As usually defined, the IC50 is the concentration at which inhibition is half-maximal.

Bounds are passed on as bounds.

Holding throughout (format): biochemical
For one test, the system named is CCNTB1. Put plainly: In vitro transcription-translation (IVTT) assay, CCNTB1 reporter. The note with it: HeLa S3 lysate, 2 hrs at 30° C. A digest of the protocol: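 HeLa S3 lysate-based coupled transcription-translation reactions with reporter plasmids, compounds in half-log dilutions (30 μM−0.1 μM, in DMSO), 2 h at 30° C. sfGFP/mCherry ratio, corrected for no-DNA background, normalized to no-drug control and fitted for IC50.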

The subject of another test is MYC. The test can be described thus: In vitro transcription-translation (IVTT) assay, MYC reporter. The conditions noted are these: IVTT assay, HeLa S3 lysate, MYC reporter, normalized sfGFP/mCherry ratio; half-log dilutions 30 μM-0.1 μM, 2 hrs at 30° C. A digest of the protocol:
(§1)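 Reporter: mCherry, P2A, then 3×FLAG-target peptide-sfGFP fusion, IRES-initiated; HeLa S3 lysate IVTT; cpd dilutions 30 μM−0.1 μM half-log in 100% DMSO (dilution-plate conc); DNA added last; 2 h, 30° C; PBS quench.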

For a further test, the system named is CCNE1. The test can be described thus: In vitro transcription-translation (IVTT) assay, CCNE1 reporter. The note with it: HeLa S3 lysate, 2 hrs at 30° C. As for the experimental part: Each preparation takes 8 cell pellets (4 ml packed volume each, approximately 1.0×10^9 cells per pellet). Thaw cell pellets from −80° C. on ice for 90 mins. Lay pellets horizontally on top of the ice and rotate every 30 mins to ensure even thawing. Once thawed, add 4 mL of cold lysis buffer to each pellet, and using a serological pipet, gently pipet up and down to break up clumps. Incubate resuspended cells in ice for an additional 30 mins (plunged into ice). During 30 min incubation, rinse and RNase-zap (Ambion) glass dounces (use loose pestle “A”), gently dry and place on ice until needed. Prepare RNase-free Eppendorf tubes for spinning and for batch storage. Add batch labels to 1.5-1.7 mL RNase-free microcentrifuge tubes (labeling scheme below). Each batch will have an extra 1.5-1.7 mL RNase-free microcentrifuge tube for 40 μL of lysate, label the top of this tube (labeling scheme below). After 30 min incubation, transfer all 8 mL of cell pellet to dounce. Cell lysis is complete after douncing 100 times. Aliquot cell lysis into 1.5-1.7 mL temporary-microcentrifuge tubes. Place tubes in centrifuge with “fins” out, and spin at 1,200×g for 5 mins. After the first spin use a 1 mL pipet to resuspend each tube and repeat spin. This acts as an additional lysis step, is more vigorous and increases lysate yield. During second spin get liquid N2 and a fresh conical tube on ice. After spin is complete, transfer supernatant (lysate) from microcentrifuge tubes into the 50 mL conical tube and keep on ice. Repeat steps 10-14 for all other cell pellets until completed. Once all cell lysate has been transferred to the 50 mL conical tube pipet to mix so the solution is homogenous. Transfer 1 mL of lysate into batch-labeled microcentrifuge tubes and flash freeze in liquid nitrogen. Be sure to pipet up and down to mix throughout transfer step. Place all tubes in the […] for long-term storage.
In vitro transcription-translation assay setup: Each assay includes a master mix containing lysate and shared components, a 96-well plate containing compound titrations for testing, a 96-well DNA plate with reporter constructs to be tested, 96-well skirted PCR plates, and 96-well flat-bottom, black, fluorescent assay plates. Reaction materials setup: (A) Master mix—15 mL conical tube (3 mL of HeLa S3 Lysate described above; 0.6 mL of ThermoFisher Accessory Proteins (#88882); 1.2 ml of ThermoFisher Reaction Mix (#88882); 0.54 mL of nuclease-free Water); (B) 96-Well Master Mix+Compound Plate (Half-log dilutions (30 μM−0.1 μM) of 4 compounds of interest are prepared in 100% DMSO); 96-Well DNA Plate (Five DNA constructs are plated into single columns within the plate. Row 1 of the column contains nuclease free H2O, all other wells contain 110 ng/μL plasmid DNA). Reactions are started by mixing 155 μL of master mix and 3.5 μL of compound serial dilutions, then 9.1 μL of master mix+compound mixture is aliquoted across 5 96-well plates. Reactions begin with final addition of 2 μL of DNA for a 11.1 μL reaction volume in each well. The entire plate is sealed, and incubated for 2 hrs at 30° C. After 2 hrs, quench the assay using 45 μL of PBS, and transfer 50 μL to a flat-bottom black microplate Quantify the sfGFP and mCherry signals from each well on each plate, taking 3 reads of each plate, and perform data analysis below.
In vitro transcription-translation assay data analysis: Each plate is read three times in channels for both sfGFP and mCherry signals. The average signal across these 3 reads is then calculated for further analysis. Control wells containing no DNA reporter are subtracted from reporter wells in the same column to remove auto-fluorescence of the lysate. Then, the ratio of sfGFP/mCherry is calculated per well, and these ratios are averaged across the triplicate experiments on the same plate. Finally, the ratio of each titration concentration is normalized to the no drug control to create the normalized stalling metric. […]

Another test relates to CCND1. Put plainly: In vitro transcription-translation (IVTT) assay, CCND1 reporter. The conditions noted are these: IVTT, HeLa S3 lysate, 2 hrs at 30° C. Summed up:
as §1

Take `COc1ccc(C[C@H]2NC[C@H](O)[C@H]2OC(=O)NCCc2ccc(S(=O)(=O)F)cc2)cc1` [V188175, (2R,3S,4S)-4-hydroxy-2-[(4-methoxyphenyl)methyl]pyrrolidin-3-yl N-{2-[4-(fluorosulfonyl)phenyl]ethyl}carbamate]: the IC50 with CCNTB1 was below 10 µM; in the test with MYC it was 10 to 20 µM; with CCNE1, 10 to 20 µM; in the test with CCND1 it was above 30 µM.
Regarding `O=C(NC[C@@H]1CCOC1)O[C@@H]1[C@@H](O)CN[C@@H]1Cc1ccc(Cl)cc1` [V188288, (2R,3S,4S)-2-[(4-chlorophenyl)methyl]-4-hydroxypyrrolidin-3-yl N-[(3S)-oxolan-3-ylmethyl]carbamate], the IC50 in the test with CCNTB1 was below 10 µM; in the test on MYC it was 10 to 20 µM; with CCNE1 it was below 10 µM; in the test on CCND1, 20 to 30 µM.
As to `COc1ccc(C[C@H]2NC[C@H](O)[C@H]2OC(=O)NC[C@H]2C[C@@H](N)C2)cc1` [V188147, (2R,3S,4S)-4-hydroxy-2-[(4-methoxyphenyl)methyl]pyrrolidin-3-yl N-{[(1s,3s)-3-aminocyclobutyl]methyl}carbamate], the IC50 in the test with CCNTB1 was below 10 µM; in the test on MYC it was below 10 µM; with CCNE1, below 10 µM; in the test with CCND1, 10 to 20 µM.
Regarding `O=C(NC[C@H]1CCNC1)O[C@@H]1[C@@H](O)CN[C@@H]1Cc1ccc(Cl)cc1` [V188188, (2R,3S,4S)-2-[(4-chlorophenyl)methyl]-4-hydroxypyrrolidin-3-yl N-[(3S)-pyrrolidin-3-ylmethyl]carbamate], the IC50 was below 10 µM with CCNTB1, above 30 µM in the test on MYC, below 10 µM with CCNE1 and above 30 µM in the test with CCND1.
`COc1ccc(C[C@H]2NC[C@H](O)[C@H]2OC(=O)NCCNc2cc[nH]n2)cc1` [V187944, (2R,3S,4S)-4-hydroxy-2-[(4-methoxyphenyl)methyl]pyrrolidin-3-yl N-[2-(1H-pyrazol-3-ylamino)ethyl]carbamate]: the IC50 in the test on CCNTB1 was below 10 µM; in the test on MYC it was 10 to 20 µM; in the test on CCNE1, 10 to 20 µM; in the test on CCND1, 20 to 30 µM.
On to `COc1ccc(C[C@H]2NC[C@H](O)[C@H]2OC(=O)NC[C@@H]2[C@@H]3CNC[C@@H]32)cc1` [V188161, (2R,3S,4S)-4-hydroxy-2-[(4-methoxyphenyl)methyl]pyrrolidin-3-yl N-[(1R,5S,6S)-3-azabicyclo[3.1.0]hexan-6-ylmethyl]carbamate], for which the concentration for half-maximal inhibition (IC50) in the test on CCNTB1 is below 10 µM; with MYC, above 30 µM; with CCNE1, 10 to 20 µM; in the test with CCND1, above 30 µM.
Consider `O=C(NCc1cccc(F)c1)O[C@@H]1[C@@H](O)CN[C@@H]1Cc1ccc(Cl)cc1` [V188270, (2R,3S,4S)-2-[(4-chlorophenyl)methyl]-4-hydroxypyrrolidin-3-yl N-[(3-fluorophenyl)methyl]carbamate], for which the IC50 in the test on CCNTB1 is below 10 µM; in the test with MYC, below 10 µM; in the test on CCNE1, below 10 µM; with CCND1 it was 10 to 20 µM.
On to `COc1ccc(C[C@H]2NC[C@H](O)[C@H]2OC(=O)NCc2ccc3[nH]cnc3c2)cc1` [V188150, (2R,3S,4S)-4-hydroxy-2-[(4-methoxyphenyl)methyl]pyrrolidin-3-yl N-(JH-1,3-benzodiazol-5-ylmethyl)carbamate], for which the IC50 in the test with CCNTB1, in the test with MYC, in the test with CCNE1 and in the test on CCND1 was below 10 µM each time.
In the case of `COc1ccc(C[C@H]2NC[C@H](O)[C@H]2OC(=O)NCc2ccnc(N3CCCC3)c2)cc1` [V188226, (2R,3S,4S)-4-hydroxy-2-[(4-methoxyphenyl)methyl]pyrrolidin-3-yl N-{[2-(pyrrolidin-1-yl)pyridin-4-yl]methyl}carbamate], the IC50 with CCNTB1, with MYC, with CCNE1 and in the test with CCND1 was below 10 µM in each case.
For `COc1ccc(C[C@H]2NC[C@H](O)[C@H]2OC(=O)NCCn2ccnc2[N+](=O)[O-])cc1` [V188085, (2R,3S,4S)-4-hydroxy-2-[(4-methoxyphenyl)methyl]pyrrolidin-3-yl N-[2-(2-nitroimidazol-1-yl)ethyl]carbamate], the half-maximal inhibitory concentration (IC50) in the test on CCNTB1 was below 10 µM; with MYC, 10 to 20 µM; in the test with CCNE1 it was below 10 µM; with CCND1 it was 20 to 30 µM.
With `O=C(NCc1ccccc1)O[C@@H]1[C@@H](O)CN[C@@H]1Cc1ccc(Cl)cc1` [V188203, (2R,3S,4S)-2-[(4-chlorophenyl)methyl]-4-hydroxypyrrolidin-3-yl N-benzylcarbamate], the IC50 with CCNTB1 is below 10 µM; with MYC, 10 to 20 µM; in the test with CCNE1 it was below 10 µM; in the test with CCND1, 10 to 20 µM.
For the compound `O=C(NCc1cc(F)cc(F)c1)O[C@@H]1[C@@H](O)CN[C@@H]1Cc1ccc(Cl)cc1` [V188272, (2R,3S,4S)-2-[(4-chlorophenyl)methyl]-4-hydroxypyrrolidin-3-yl N-[(3,5-difluorophenyl)methyl]carbamate], the IC50 with CCNTB1 is below 10 µM; with MYC it was 10 to 20 µM; in the test with CCNE1, below 10 µM; in the test with CCND1, 20 to 30 µM.
Consider `COc1ccc(C[C@H]2NC[C@H](O)[C@H]2OC(=O)NC[C@H]2CCNC2)cc1F` [V188076, (2R,3S,4S)-2-[(3-fluoro-4-methoxyphenyl)methyl]-4-hydroxypyrrolidin-3-yl N-[(3S)-pyrrolidin-3-ylmethyl]carbamate], for which the IC50 was below 10 µM with CCNTB1, above 30 µM in the test with MYC, 10 to 20 µM with CCNE1 and 20 to 30 µM with CCND1.
For `COc1ccc(C[C@H]2NC[C@H](O)[C@H]2OC(=O)NCC2CCS(=O)(=O)C2)cc1` (stereo partly drawn) [V188154, (2R,3S,4S)-4-hydroxy-2-[(4-methoxyphenyl)methyl]pyrrolidin-3-yl N-[(1,1-dioxo-1lambda6-thiolan-3-yl)methyl]carbamate], in that order: below 10 µM, below 10 µM, below 10 µM and below 10 µM.
For `COc1ccc(C[C@H]2NC[C@H](O)[C@H]2OC(=O)NC[C@H]2CCN(c3nccs3)C2)cc1` [V188170, (2R,3S,4S)-4-hydroxy-2-[(4-methoxyphenyl)methyl]pyrrolidin-3-yl N-{[(3R)-1-(1,3-thiazol-2-yl)pyrrolidin-3-yl]methyl}carbamate], in that order: below 10 µM, 10 to 20 µM, below 10 µM and below 10 µM.
Regarding `COc1ccc(C[C@H]2NC[C@H](O)[C@H]2OC(=O)NCc2cc(N3CCC3)nc(N3CCC3)c2)cc1` [V188227, (2R,3S,4S)-4-hydroxy-2-[(4-methoxyphenyl)methyl]pyrrolidin-3-yl N-{[2,6-bis(azetidin-1-yl)pyridin-4-yl]methyl}carbamate], the IC50 is below 10 µM in the test with CCNTB1, 20 to 30 µM with MYC, 20 to 30 µM with CCNE1 and 20 to 30 µM in the test with CCND1.
